Reference: ChEMBL document CHEMBL1126154, “Pyrrole mannich bases as potential antipsychotic agents” (J Med Chem, 1992)

Experiments:
[1] = target: T1, Adrenergic receptor alpha-1 (Rattus norvegicus, UniProt P15823+P23944+P43140); assay: The compound was tested for its binding affinity towards Alpha-1 adrenergic receptor by displacing [3H]WB-4101 radioligand in rat cerebral cortex; format: tissue-based
T1 sequence (P15823 whole entry): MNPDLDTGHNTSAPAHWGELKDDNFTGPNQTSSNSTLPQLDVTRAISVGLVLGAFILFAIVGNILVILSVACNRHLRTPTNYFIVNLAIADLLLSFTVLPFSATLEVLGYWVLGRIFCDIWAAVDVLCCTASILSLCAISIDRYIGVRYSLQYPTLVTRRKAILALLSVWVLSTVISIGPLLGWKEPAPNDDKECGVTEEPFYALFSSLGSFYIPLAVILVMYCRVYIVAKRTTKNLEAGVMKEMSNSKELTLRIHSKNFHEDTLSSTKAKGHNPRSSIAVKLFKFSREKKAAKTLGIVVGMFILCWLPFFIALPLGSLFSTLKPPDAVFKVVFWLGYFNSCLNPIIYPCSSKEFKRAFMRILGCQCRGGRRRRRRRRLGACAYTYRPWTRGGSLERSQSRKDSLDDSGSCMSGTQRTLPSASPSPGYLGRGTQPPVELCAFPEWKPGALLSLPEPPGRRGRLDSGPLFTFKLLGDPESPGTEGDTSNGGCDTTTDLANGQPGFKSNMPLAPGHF
T1 sequence (P23944 whole entry): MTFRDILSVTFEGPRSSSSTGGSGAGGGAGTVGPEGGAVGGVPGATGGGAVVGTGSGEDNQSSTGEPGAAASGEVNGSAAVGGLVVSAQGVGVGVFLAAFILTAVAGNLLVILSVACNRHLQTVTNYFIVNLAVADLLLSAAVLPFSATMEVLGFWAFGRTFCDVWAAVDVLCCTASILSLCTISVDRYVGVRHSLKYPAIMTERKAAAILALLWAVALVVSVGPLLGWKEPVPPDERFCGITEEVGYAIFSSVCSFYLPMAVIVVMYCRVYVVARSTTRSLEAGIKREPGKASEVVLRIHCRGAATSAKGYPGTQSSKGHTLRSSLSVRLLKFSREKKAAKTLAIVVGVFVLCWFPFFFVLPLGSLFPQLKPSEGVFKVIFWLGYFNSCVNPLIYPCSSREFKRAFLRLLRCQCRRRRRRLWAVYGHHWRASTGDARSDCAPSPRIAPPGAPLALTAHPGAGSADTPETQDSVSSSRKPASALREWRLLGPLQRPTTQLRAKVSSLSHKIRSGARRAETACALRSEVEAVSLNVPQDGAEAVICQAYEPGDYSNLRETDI
T1 sequence (P43140 whole entry): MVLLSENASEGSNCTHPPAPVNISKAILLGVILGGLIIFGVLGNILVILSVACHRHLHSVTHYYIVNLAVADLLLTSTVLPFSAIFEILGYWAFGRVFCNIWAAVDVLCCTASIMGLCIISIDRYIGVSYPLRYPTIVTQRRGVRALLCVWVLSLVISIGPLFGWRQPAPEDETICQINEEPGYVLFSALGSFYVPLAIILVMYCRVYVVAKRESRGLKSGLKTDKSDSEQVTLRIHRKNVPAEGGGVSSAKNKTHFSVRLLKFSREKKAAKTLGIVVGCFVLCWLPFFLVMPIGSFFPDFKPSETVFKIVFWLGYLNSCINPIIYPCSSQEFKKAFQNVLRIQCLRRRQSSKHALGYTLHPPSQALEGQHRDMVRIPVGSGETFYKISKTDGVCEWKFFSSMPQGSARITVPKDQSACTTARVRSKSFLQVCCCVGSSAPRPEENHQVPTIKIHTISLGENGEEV

Rattus norvegicus [2] = assay: Antipsychotic activity at a dose 10 times the ED50 value for CAR block for production of catalepsy in the rat (following i.p. dosing); format: functional; details: ip
[3] = target: Serotonin 1 (5-HT1) receptor (Rattus norvegicus, UniProt P28564+P30940+P19327+P28565); assay: The compound was tested for its binding affinity towards 5-hydroxytryptamine 1 receptor by displacing [3H]5-HT radioligand in rat cerebral cortex; format: tissue-based
[4] = target: Serotonin 2 (5-HT2) receptor (Rattus norvegicus, UniProt P30994+P08909+P14842); assay: The compound was tested for its binding affinity towards 5-hydroxytryptamine 2 receptor by displacing [3H]ketanserin radioligand in rat cerebral cortex; format: tissue-based
Rattus norvegicus [5] = assay: The compound was measured at a dose 10 times the ED50 value for CAR block for production of catalepsy in the rat via oral administration.; format: functional; details: Rattus norvegicus, po; read-out: ED50
Rattus norvegicus [6] = assay: The percentage production of catalepsy in rat at a dose of 25 mg/kg ip.; format: functional
[7] = target: T2, 5-hydroxytryptamine receptor 1A (Rattus norvegicus, UniProt P19327); assay: Binding affinity towards 5-hydroxytryptamine 1A receptor by displacing [3H]WB-4101 from rat hippocampus; format: tissue-based
T2 sequence (P19327 whole entry): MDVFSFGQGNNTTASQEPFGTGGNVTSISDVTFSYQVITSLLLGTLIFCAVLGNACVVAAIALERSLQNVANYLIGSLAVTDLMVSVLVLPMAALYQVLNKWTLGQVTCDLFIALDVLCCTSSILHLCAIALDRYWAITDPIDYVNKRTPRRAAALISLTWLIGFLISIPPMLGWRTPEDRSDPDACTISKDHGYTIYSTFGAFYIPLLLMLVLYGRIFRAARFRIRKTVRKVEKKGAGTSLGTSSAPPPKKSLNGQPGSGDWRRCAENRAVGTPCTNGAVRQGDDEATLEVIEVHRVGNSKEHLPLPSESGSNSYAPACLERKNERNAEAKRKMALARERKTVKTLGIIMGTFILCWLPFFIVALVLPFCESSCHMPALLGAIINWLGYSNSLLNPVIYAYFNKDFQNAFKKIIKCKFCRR

[8] = target: 5-hydroxytryptamine receptor 1B (Rattus norvegicus, UniProt P28564); assay: The compound was tested for its binding affinity towards 5-hydroxytryptamine 1B receptor by displacing [3H]serotonin radioligand in rat cerebral cortex; format: tissue-based
Rattus norvegicus [9] = assay: The percentage production of catalepsy in rat at a dose of 40 mg/kg ip.; format: functional
Rattus norvegicus [10] = species on record: Rattus norvegicus; assay: ED50 value for catalepsy indicates the dose required to produce a 50% of maximum catalepsy score. parentheses value indicate 95% confidence limit.; format: functional
Rattus norvegicus [11] = species on record: Rattus norvegicus; assay: ED50 value for catalepsy indicates the dose required to produce a 50% of maximum catalepsy score; format: functional

Chain of 5-hydroxytryptamine receptor 1B (P28564 whole entry): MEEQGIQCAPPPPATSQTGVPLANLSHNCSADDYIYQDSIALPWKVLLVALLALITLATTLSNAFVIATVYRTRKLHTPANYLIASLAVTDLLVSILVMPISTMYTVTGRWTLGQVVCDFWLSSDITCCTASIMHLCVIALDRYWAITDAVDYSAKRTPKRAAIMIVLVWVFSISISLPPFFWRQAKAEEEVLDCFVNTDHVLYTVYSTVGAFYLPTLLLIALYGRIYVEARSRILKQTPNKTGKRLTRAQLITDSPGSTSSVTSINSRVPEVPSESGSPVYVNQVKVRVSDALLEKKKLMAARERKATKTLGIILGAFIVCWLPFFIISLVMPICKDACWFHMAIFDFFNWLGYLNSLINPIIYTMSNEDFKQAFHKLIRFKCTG

| Compound | Ki [1] | ED50 (Rattus norvegicus [2]) | Ki [3] | Ki [4] | further results |
| --- | --- | --- | --- | --- | --- |
| Cc1ccccc1N1CCN(Cc2ccc(CN3CCCC3=O)n2C)CC1 | 136 nM | > 15 mg/kg | 1000 nM | – | – |
| CCCCc1ccccc1N1CCN(Cc2ccc(CN3CCCC3=O)n2C)CC1 | – | > 15 mg/kg | – | – | – |
| Cn1c(CN2CCN(c3ccccc3C#N)CC2)ccc1CN1CCCC1=O | 63.7 nM | > 15 mg/kg | 140 nM | – | – |
| COc1ccccc1N1CCN(Cc2ccc(CN3CCCC3=O)[nH]2)CC1 | 43.1 nM | > 15 mg/kg | 148 nM | 1000 nM | – |
| COc1ccccc1N1CCN(Cc2ccc(CN3CCCCCC3=O)n2C)CC1 | 43.7 nM | 2.1 mg/kg | 120 nM | 669 nM | ED50 (Rattus norvegicus [5]): 30.5 mg/kg; % catalepsy at 25 mg/kg (Rattus norvegicus [6]): 51% |
| COc1ccccc1N1CCN(Cc2ccc(CN3CCCC3=O)n2-c2ccccc2)CC1 | 100 nM | > 15 mg/kg | – | – | – |
| O=C1CCCN1Cc1ccc(CN2CCN(c3ccccc3)CC2)[nH]1 | – | > 15 mg/kg | – | – | – |
| Cn1c(CN2CCN(c3ccccc3O)CC2)ccc1CN1CCCC1=O | 140 nM | > 15 mg/kg | – | – | – |
| COc1ccccc1N1CCN(Cc2ccc(CN3CCCCC3=O)n2C)CC1 | 166 nM | 2.3 mg/kg | 139 nM | – | ED50 (Rattus norvegicus [5]): 9.7 mg/kg; % catalepsy at 25 mg/kg (Rattus norvegicus [6]): 39.8% |
| Cn1c(CN2CCN(c3ccccc3Cl)CC2)ccc1CN1CCCC1=O | 53.1 nM | > 15 mg/kg | – | – | – |
| COc1cccc(N2CCN(Cc3ccc(CN4CCCC4=O)n3C)CC2)c1 | 1000 nM | > 7.5 mg/kg | > 1000 nM | – | – |
| Cn1c(CN2CCN(c3cccc([N+](=O)[O-])c3)CC2)ccc1CN1CCCC1=O | > 100 nM | 15 mg/kg | > 1000 nM | > 100 nM | – |
| CCc1ccccc1N1CCN(Cc2ccc(CN3CCCC3=O)n2C)CC1 | 38.2 nM | 15 mg/kg | 304 nM | 227 nM | – |
| COc1ccccc1N1CCN(Cc2ccc(CN3CCCC3=O)n2C)CC1 | 44.9 nM | 2.1 mg/kg | 185 nM | > 1000 nM | ED50 (Rattus norvegicus [5]): > 20 mg/kg; % catalepsy at 25 mg/kg (Rattus norvegicus [6]): 31%; Ki [7]: 17.2 nM |
| Cn1c(CN2CCN(c3ccccc3)CC2)ccc1CN1CCCC1=O | 436 nM | > 15 mg/kg | – | – | – |
| Cn1c(CN2CCN(c3cccc(F)c3)CC2)ccc1CN1CCCC1=O | > 100 nM | > 15 mg/kg | 1000 nM | > 100 nM | – |
| COc1ccccc1N1CCN(Cc2ccc(CN3CCCCCCC3=O)n2C)CC1 | 23.1 nM | 8.2 mg/kg | 41 nM | 1000 nM | ED50 (Rattus norvegicus [5]): > 27 mg/kg; % catalepsy at 25 mg/kg (Rattus norvegicus [6]): 16.3% |
| CCc1ccccc1N1CCN(Cc2ccc(CN3CCCCC3=O)n2C)CC1 | 11.3 nM | > 15 mg/kg | 27.3 nM | 355 nM | Ki [8]: 100 nM; Ki [7]: 30 nM |
| CC(C)c1ccccc1N1CCN(Cc2ccc(CN3CCCCCCC3=O)n2C)CC1 | 35.9 nM | > 15 mg/kg | 50.2 nM | 196 nM | – |
| CCCCOc1ccccc1N1CCN(Cc2ccc(CN3CCCCCC3=O)n2C)CC1 | 15.7 nM | > 15 mg/kg | 58.9 nM | 237 nM | – |
| CCCc1ccccc1N1CCN(Cc2ccc(CN3CCCC3=O)n2C)CC1 | 26.6 nM | > 30 mg/kg | 283 nM | 317 nM | – |
| CC(C)c1ccccc1N1CCN(Cc2ccc(CN3CCCC3=O)n2C)CC1 | 20 nM | 5.8 mg/kg | 76 nM | 409 nM | – |
| Cn1c(CN2CCN(c3cccc(Cl)c3)CC2)ccc1CN1CCCC1=O | 264 nM | 12.3 mg/kg | 196 nM | 256 nM | – |
| Cn1c(CN2CCN(c3cccc([N+](=O)[O-])c3)CC2)ccc1CN1CCCCC1=O | – | > 15 mg/kg | – | 669 nM | – |
| CC(C)Oc1ccccc1N1CCN(Cc2ccc(CN3CCCCC3=O)[nH]2)CC1 | 5.2 nM | 4 mg/kg | 33.1 nM | 55.3 nM | % catalepsy at 40 mg/kg (Rattus norvegicus [9]): 10%; Ki [7]: 5.4 nM |
| O=C1CC2(CCCC2)CC(=O)N1CCCCN1CCN(c2ncccn2)CC1 [BUSPIRONE] | – | 4.5 mg/kg | – | – | – |
| O=C(CCCN1CCC(O)(c2ccc(Cl)cc2)CC1)c1ccc(F)cc1 [HALOPERIDOL] | – | – | – | – | ED50 (Rattus norvegicus [10]): 0.36 mg/kg |
| CCN1CCC[C@H]1CNC(=O)c1cc(S(N)(=O)=O)ccc1OC [LEVOSULPIRIDE] | > 1000 nM | > 40 mg/kg | – | – | ED50 (Rattus norvegicus [11]): > 40 mg/kg |
| CN1CCN(CCCN2c3ccccc3Sc3ccc(C(F)(F)F)cc32)CC1 [TRIFLUOPERAZINE] | 29.3 nM | 0.5 mg/kg | > 1000 nM | – | ED50 (Rattus norvegicus [11]): 1.7 mg/kg; Ki [7]: 411 nM |
